Patent US8916555B2, “3,5-diaminopyrazole kinase inhibitors” (Axikin Pharmaceuticals, Inc., priority 2012, dated 2014)

Legend:
[1] = biological target: T1, kinase domain protein of RC kinase (Homo sapiens, UniProt Q56UN5); assay: Enzymatic assay for kinase inhibitory activity (Crebtide substrate, LANCE readout), kinase domain protein; format: biochemical; conditions: test compound 1 μM, ATP 1 μM, Crebtide 50 nM
T1 sequence (Q56UN5 1061-1324 limits assumed): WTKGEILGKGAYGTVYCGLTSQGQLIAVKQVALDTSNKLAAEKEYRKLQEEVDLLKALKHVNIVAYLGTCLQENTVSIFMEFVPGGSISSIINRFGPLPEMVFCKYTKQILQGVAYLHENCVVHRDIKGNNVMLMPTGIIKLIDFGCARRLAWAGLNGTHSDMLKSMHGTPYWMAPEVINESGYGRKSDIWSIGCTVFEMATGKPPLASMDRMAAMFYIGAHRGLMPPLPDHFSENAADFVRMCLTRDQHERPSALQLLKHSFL
Description: Solutions of a test compound, Crebtide (a substrate), a kinase, and ATP were prepared using 1×MAPK Buffer (50 mM HEPES, 1 mM EGTA, […], 10 mM MgCl2, 2 mM DTT, and 0.01% Tween 20).
To each well, the test compound (1 μL) was first added (in duplicate) to reach a final concentration of 1 μM or 1×IC50 of the compound. The kinase (5 μL) was then added to each well to reach a final concentration of […] for the kinase domain or […] for the full-length domain. Each plate included a positive and negative controls in duplicate wells. Crebtide (2.5 μL) was then added to each well in duplicate to reach a final concentration of 50 nM. If the full-length kinase was used, the plates were incubated for 45 min at room temperature before proceeding further. ATP (2.5 μL) was added to each well to reach a final concentration of 1 μM for the kinase domain and 3 μM for the full-length.
After the addition of ATP, the plates were incubated for 45 min at room temperature. During the incubation, an EDTA solution (40 mM) and anti-Crebtide ([…]) were prepared. Additionally, a detection buffer stock solution was diluted ten fold before use.
After the incubation, the anti-Crebtide (5 μL) and EDTA (5 μL) were added to each well to reach their final concentrations of […] and 10 mM, respectively. The plates were allowed to develop at room temperature for 45 min. The plates were then read at 665 nm and 615 nm using Perkin Elmer Lance machine.
The biological results of inhibition of the kinase domain protein of RC kinase are summarized in Tables 2 and 3, wherein A represents at least 50% inhibition of the RC kinase activity at 1 μM; B represents no greater than 50% but at least 20% inhibition of the RC kinase activity at 1 μM; C represents no greater than 20% but at least 5% inhibition of the RC kinase activity at 1 μM; and D represents no greater than 5% inhibition of the RC kinase activity at 1 μM.

Row | SMILES | inhibition at 1 µM [1] [%] | melting point [°C]
1 | NC(=O)c1c(Nc2ccc(C(F)(F)F)nc2)n[nH]c1NCc1ccc(O)cc1 [Compound D91] | ≥ 50 | 259 to 265
2 | COc1ccc(C(C)C)cc1CNc1[nH]nc(Nc2cccc(Cl)c2)c1C(N)=O [Compound D94] | 20 to 50 | 184 to 194
3 | NC(=O)c1c(Nc2cccc(Cl)c2)n[nH]c1NCc1cccs1 [Compound D95, 3-((3-chlorophenyl)amino)-5-((thiophen-2-ylmethyl)amino)-1H-pyrazole-4-carboxamide] | ≤ 5 | 222 to 227
4 | NC(=O)c1c(Nc2cccc(Cl)c2)n[nH]c1NCc1ccco1 [Compound D96, 3-((3-chlorophenyl)amino)-5-((furan-2-ylmethyl)amino)-1H-pyrazole-4-carboxamide] | 20 to 50 | 214 to 220
5 | NC(=O)c1c(Nc2cccc(Cl)c2)n[nH]c1NCc1ccoc1 [Compound D97] | 5 to 20 | 219 to 221
6 | Cc1cn(-c2ccc(Nc3n[nH]c(NCc4ccc(O)cc4)c3C(N)=O)cc2)cn1 [Compound D98, 5-((4-hydroxybenzyl)amino)-3-((4-(4-methyl-1H-imidazol-1-yl)phenyl)amino)-1H-pyrazole-4-carboxamide] | ≥ 50 | 257 to 260
7 | NC(=O)c1c(Nc2ccc(N3CCOC(=O)C3)cc2)n[nH]c1NCc1ccc(O)cc1 [Compound D99, 5-((4-hydroxybenzyl)amino)-3-((4-(2-oxomorpholino)phenyl)amino)-1H-pyrazole-4-carboxamide] | ≥ 50 | 194 to 197
8 | NC(=O)c1c(Nc2ccc(N3CCOCC3)c(F)c2)n[nH]c1NCc1ccc(O)cc1 [Compound D100] | ≥ 50 | 208 to 211
9 | NC(=O)c1c(Nc2ccc(N)cc2)n[nH]c1NCc1ccc(O)cc1 [Compound D101, 3-((4-aminophenyl)amino)-5-((4-hydroxybenzyl)amino)-1H-pyrazole-4-carboxamide] | ≥ 50 | 190 to 193
10 | CC1CCN(C2CCN(c3ccc(Nc4n[nH]c(NCc5ccc(O)cc5)c4C(N)=O)cc3)CC2)CC1 [Compound D102, 5-((4-hydroxybenzyl)amino)-3-((4-(4-methyl-[1,4′-bipiperidin]-1′-yl)phenyl)amino)-1H-pyrazole-4-carboxamide] | ≥ 50 | 220 to 224
11 | COc1cc(CNc2[nH]nc(NCc3ccc(O)cc3)c2C(N)=O)ccc1F [Compound D105] | 20 to 50 | 180 to 184
12 | NC(=O)c1c(Nc2ccc(S(N)(=O)=O)cc2)n[nH]c1NCc1ccc(O)cc1 [Compound D107, 5-((4-hydroxybenzyl)amino)-3-((4-sulfamoylphenyl)amino)-1H-pyrazole-4-carboxamide] | ≥ 50 | 270 to 275
13 | NC(=O)c1c(Nc2ccc(-c3ccccn3)cc2)n[nH]c1NCc1ccc(O)cc1 [Compound D109] | ≥ 50 | 217 to 221
14 | NC(=O)c1c(Nc2ccc(N3CCN(C(=O)N4CCCCC4)CC3)cc2)n[nH]c1NCc1ccc(O)cc1 [Compound D110, 5-((4-hydroxybenzyl)amino)-3-((4-(4-(piperidine-1-carbonyl)piperazin-1-yl)phenyl)amino)-1H-pyrazole-4-carboxamide] | ≥ 50 | 236 to 240
15 | NC(=O)c1c(Nc2ccc(-c3cnco3)cc2)n[nH]c1NCc1ccc(O)cc1 [Compound D111] | ≥ 50 | 258 to 266
16 | COc1ccc(CNc2n[nH]c(NCc3ccc(O)cc3)c2C(N)=O)cn1 [Compound D112] | 20 to 50 | 178 to 180
17 | CS(=O)(=O)c1ccc(CNc2n[nH]c(NCc3ccc(O)cc3)c2C(N)=O)cc1 [Compound D113, 5-((4-hydroxybenzyl)amino)-3-((4-(methylsulfonyl)benzyl)amino)-1H-pyrazole-4-carboxamide] | 5 to 20 | 263 to 267
18 | NC(=O)c1c(NCc2c(F)cccc2F)n[nH]c1NCc1ccc(O)cc1 [Compound D114] | ≤ 5 | 189 to 191

The next lines start with the values.

Row | inhibition at 1 µM [1] [%] | melting point [°C] | SMILES
19 | 5 to 20 | 215 to 218 | NC(=O)c1c(NCc2c(F)cccc2Cl)n[nH]c1NCc1ccc(O)cc1 [Compound D115]
20 | ≥ 50 | 230 to 236 | CN1CCN(c2ccc(Nc3n[nH]c(NCc4ccc(O)cc4)c3C(N)=O)cc2Cl)CC1 [Compound D116]
21 | ≥ 50 | 199 to 203 | NC(=O)c1c(Nc2ccc(N3CCOCC3)nc2)n[nH]c1NCc1ccc(O)cc1 [Compound D118]
22 | ≥ 50 | 203 to 206 | CC1CCN(C2CCN(c3ccc(Nc4n[nH]c(NCc5ccc(O)cc5)c4C(N)=O)cn3)CC2)CC1 [Compound D119]
23 | ≥ 50 | 241 to 244 | NC(=O)c1c(Nc2ccc(N3CCC(N4CCCC4)CC3)cc2)n[nH]c1NCc1ccc(O)cc1 [Compound D121]
24 | 5 to 20 | 204 to 207 | NC(=O)c1c(NCc2ccc(Cl)c(F)c2)n[nH]c1NCc1ccc(O)cc1 [Compound D122]
25 | ≥ 50 | 219 to 227 | NC(=O)c1c(Nc2ccc(N3CCN(c4ncccn4)CC3)cc2)n[nH]c1NCc1ccc(O)cc1 [Compound D124]
26 | ≥ 50 | 216 to 220 | NC(=O)c1c(Nc2ccc(-c3cc(CO)c4ccccc4n3)cc2)n[nH]c1NCc1ccc(O)cc1 [Compound D125]
27 | ≥ 50 | 184 to 188 | CN(C)c1ccc(Nc2n[nH]c(NCc3ccc(O)cc3)c2C(N)=O)cc1 [Compound D126, 3-((4-(dimethylamino)phenyl)amino)-5-((4-hydroxybenzyl)amino)-1H-pyrazole-4-carboxamide]
28 | ≥ 50 | 216 to 220 | NC(=O)c1c(Nc2ccc(NC(=O)c3cccc(F)c3)cc2)n[nH]c1NCc1ccc(O)cc1 [Compound D131]
29 | ≥ 50 | 227 to 231 | NC(=O)c1c(Nc2ccc(NC(=O)c3ccc(F)cc3)cc2)n[nH]c1NCc1ccc(O)cc1 [Compound D132, 3-((4-(4-fluorobenzamido)phenyl)amino)-5-((4-hydroxybenzyl)amino)-1H-pyrazole-4-carboxamide]
30 | ≥ 50 | 222 to 226 | CC(C)(C)OC(=O)Nc1ccc(Nc2n[nH]c(NCc3ccc(O)cc3)c2C(N)=O)cc1 [Compound D135]
31 | 20 to 50 | 200 to 204 | CC(C)c1ccc(Nc2n[nH]c(NCc3ccc(O)cc3)c2C(N)=O)cc1 [Compound D137, 5-((4-hydroxybenzyl)amino)-3-((4-isopropylphenyl)amino)-1H-pyrazole-4-carboxamide]
32 | 20 to 50 | 228 to 232 | NC(=O)c1c(Nc2ccc(NC(=O)c3sc4cc(F)ccc4c3Cl)cc2)n[nH]c1NCc1ccc(O)cc1 [Compound D141, 3-((4-(3-chloro-6-fluorobenzo[b]thiophene-2-carboxamido)phenyl)amino)-5-((4-hydroxybenzyl)amino)-1H-pyrazole-4-carboxamide]
33 | ≥ 50 | 208 to 211 | COc1ccccc1C(=O)Nc1ccc(Nc2n[nH]c(NCc3ccc(O)cc3)c2C(N)=O)cc1 [Compound D143, 5-((4-hydroxybenzyl)amino)-3-((4-(2-methoxybenzamido)phenyl)amino)-1H-pyrazole-4-carboxamide]
34 | ≥ 50 | 229 to 233 | NC(=O)c1c(Nc2cccnc2)n[nH]c1NCc1ccc(O)cc1 [Compound D150, 5-((4-hydroxybenzyl)amino)-3-(pyridin-3-ylamino)-1H-pyrazole-4-carboxamide]
35 | 20 to 50 | 218 to 222 | COc1ccc(CNc2[nH]nc(Nc3cccnc3)c2C(N)=O)cc1 [Compound D151, 5-((4-methoxybenzyl)amino)-3-(pyridin-3-ylamino)-1H-pyrazole-4-carboxamide]
36 | 20 to 50 | 226 to 230 | COc1cccc(CNc2[nH]nc(Nc3cccnc3)c2C(N)=O)c1 [Compound D152]
